Experimental data reported in patent US20070254863A1 (priority 2006, published 2007).
Like-named read-outs stand apart in the source and are kept apart here.

Key:
[1] = molecular target: T1, hamster SUR1 (Cricetus cricetus, UniProt Q09427); experiment: In vitro binding affinity to rodent KATP channels: SUR1 ([3H]glibenclamide displacement, COS cell membranes)
T1 construct: expressed in transfected cells; host or cells: COS-1 cells, transient (pcDNA vector)
Description: 1. In Vitro Binding Affinity of the Test Compounds to Rodent KATP Channels
Competitive binding experiments were performed to characterize the affinity of the test compounds for the binding sites for sulfonylureas and KATP channel openers (KCOS) on hamster SUR1. To assess the affinity for the sulfonylurea site, membranes from COS-cells transiently expressing hamster SUR1 were incubated in the presence of [^3H]glibenclamide with increasing concentrations of test compounds. […] For each test compound four displacement curves were measured (+/−MgATP from the human and hamster isoform). Per curve 9-15 distinct concentrations were tested covering the relevant range. All measurements were repeated at least 5 times in independent experiments.
(§1) [^3H]glibenclamide (specific activity 51 Ci mmol^−1) was obtained from NEN (Dreieich, Germany). Where needed, stock solutions were prepared in dimethylsulfoxide with a final solvent concentration in the media below 1%.
(§2) SUR- or Kir6.x isoforms were used either subcloned in the pcDNA (hamster SUR1, mouse Kir6.2) or pCMV vector (rat SUR2A, SUR2B).
(§3) For transfection, the cells were incubated 4 hours in a Tris-buffered salt solution containing DNA (5-10 μg/ml) plus DEAE-dextran (1 mg/ml), 2 min in HEPES-buffered salt solution plus dimethylsulfoxide (10%) and 4 hours in DMEM-HG plus chloroquine (100 μM). Cells were then returned to DMEM-HG plus 10% FCS. […] For binding experiments, resuspended membranes (final protein concentration 5-50 μg/ml) were incubated in “Tris-buffer” (50 mM, pH 7.4) containing either [^3H]glibenclamide (final concentration 0.3 nM or 3 nM and nonspecific binding defined by 100 nM or 1 μM glibenclamide for SUR1 or SUR2Y1205S-isoforms, respectively) or [^3H]P1075 (final concentration 3 nM, nonspecific binding defined by 100 μM pinacidil) and increasing concentrations of the test compounds. The free Mg^2+ concentration were kept close to 0.7 mM. […] Incubations were carried out for 1 h at room temperature and were terminated by rapid filtration through Whatman GF/B filters.
(§4) The inhibition constant (Ki value) of the test substances was calculated from the respective IC50 value, and was stated as the negative logarithmic value thereof (pKi).

[2] = molecular target: rat SUR2A (Rattus norvegicus, UniProt Q63563); experiment: In vitro binding affinity to rodent KATP channels: SUR2A ([3H]P1075 / [3H]glibenclamide displacement, COS cell membranes)
Description: Therefore, two strategies can be used to detect binding to the sulfonylurea site on SUR2A.
Membranes from COS-cells transiently expressing rat SUR2A were incubated in the presence of the radioligands with increasing concentrations of test compounds as described above. […] For each test compound four displacement curves were measured (displacement of [^3H]P1075 from the rat isoform of the wild type receptor and displacement of [^3H]glibenclamide from the rat isoform of SUR2AY1205S). Per curve 9-15 distinct concentrations were tested covering the relevant range. All measurements were repeated at least 5 times in independent experiments.
as §1, §2, §3, §4

[3] = hamster SUR1 in COS cell membranes, read-out: Affinity to SUR 1 (converted)
[4] = rat SUR2A in COS cell membranes

Chain of rat SUR2A (Q63563 whole entry): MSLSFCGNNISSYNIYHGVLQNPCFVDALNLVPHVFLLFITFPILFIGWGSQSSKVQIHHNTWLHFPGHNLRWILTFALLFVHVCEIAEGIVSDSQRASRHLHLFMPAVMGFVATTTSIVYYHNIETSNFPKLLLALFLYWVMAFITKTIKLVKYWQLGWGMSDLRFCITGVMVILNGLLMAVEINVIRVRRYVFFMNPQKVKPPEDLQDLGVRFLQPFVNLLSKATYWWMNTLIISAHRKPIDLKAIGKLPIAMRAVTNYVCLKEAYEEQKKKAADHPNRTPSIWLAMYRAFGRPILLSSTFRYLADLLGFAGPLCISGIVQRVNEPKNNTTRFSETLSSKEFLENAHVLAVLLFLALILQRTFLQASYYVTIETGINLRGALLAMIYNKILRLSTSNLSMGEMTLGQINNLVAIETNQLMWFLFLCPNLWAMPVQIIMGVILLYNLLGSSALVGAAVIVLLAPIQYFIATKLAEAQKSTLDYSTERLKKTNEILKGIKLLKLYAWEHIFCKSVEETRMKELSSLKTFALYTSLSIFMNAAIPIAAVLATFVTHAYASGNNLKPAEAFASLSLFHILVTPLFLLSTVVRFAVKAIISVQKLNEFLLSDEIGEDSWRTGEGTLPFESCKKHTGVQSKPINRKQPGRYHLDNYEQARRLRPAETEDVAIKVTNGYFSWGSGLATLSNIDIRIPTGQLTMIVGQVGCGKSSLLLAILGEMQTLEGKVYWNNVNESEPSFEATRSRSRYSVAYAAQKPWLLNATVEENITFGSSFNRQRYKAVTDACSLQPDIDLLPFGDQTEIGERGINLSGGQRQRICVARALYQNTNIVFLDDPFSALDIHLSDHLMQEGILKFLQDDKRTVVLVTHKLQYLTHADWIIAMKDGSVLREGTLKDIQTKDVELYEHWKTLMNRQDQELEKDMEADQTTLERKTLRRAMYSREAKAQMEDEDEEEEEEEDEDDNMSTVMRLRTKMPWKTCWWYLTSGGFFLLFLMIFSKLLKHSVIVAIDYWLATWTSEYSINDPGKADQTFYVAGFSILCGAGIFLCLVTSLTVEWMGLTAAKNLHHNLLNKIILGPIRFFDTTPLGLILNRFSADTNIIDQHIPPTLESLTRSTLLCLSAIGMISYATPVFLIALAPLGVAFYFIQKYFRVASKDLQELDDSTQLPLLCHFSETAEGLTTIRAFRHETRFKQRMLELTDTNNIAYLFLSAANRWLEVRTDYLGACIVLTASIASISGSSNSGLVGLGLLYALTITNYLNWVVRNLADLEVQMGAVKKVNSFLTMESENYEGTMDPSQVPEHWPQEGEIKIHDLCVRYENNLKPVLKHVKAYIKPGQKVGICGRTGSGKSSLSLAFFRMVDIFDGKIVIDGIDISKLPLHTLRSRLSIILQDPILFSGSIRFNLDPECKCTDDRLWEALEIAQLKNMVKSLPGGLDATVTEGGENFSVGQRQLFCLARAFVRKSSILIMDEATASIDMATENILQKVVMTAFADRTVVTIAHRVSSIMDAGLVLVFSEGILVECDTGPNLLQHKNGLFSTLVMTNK
T1 sequence (Q09427 whole entry): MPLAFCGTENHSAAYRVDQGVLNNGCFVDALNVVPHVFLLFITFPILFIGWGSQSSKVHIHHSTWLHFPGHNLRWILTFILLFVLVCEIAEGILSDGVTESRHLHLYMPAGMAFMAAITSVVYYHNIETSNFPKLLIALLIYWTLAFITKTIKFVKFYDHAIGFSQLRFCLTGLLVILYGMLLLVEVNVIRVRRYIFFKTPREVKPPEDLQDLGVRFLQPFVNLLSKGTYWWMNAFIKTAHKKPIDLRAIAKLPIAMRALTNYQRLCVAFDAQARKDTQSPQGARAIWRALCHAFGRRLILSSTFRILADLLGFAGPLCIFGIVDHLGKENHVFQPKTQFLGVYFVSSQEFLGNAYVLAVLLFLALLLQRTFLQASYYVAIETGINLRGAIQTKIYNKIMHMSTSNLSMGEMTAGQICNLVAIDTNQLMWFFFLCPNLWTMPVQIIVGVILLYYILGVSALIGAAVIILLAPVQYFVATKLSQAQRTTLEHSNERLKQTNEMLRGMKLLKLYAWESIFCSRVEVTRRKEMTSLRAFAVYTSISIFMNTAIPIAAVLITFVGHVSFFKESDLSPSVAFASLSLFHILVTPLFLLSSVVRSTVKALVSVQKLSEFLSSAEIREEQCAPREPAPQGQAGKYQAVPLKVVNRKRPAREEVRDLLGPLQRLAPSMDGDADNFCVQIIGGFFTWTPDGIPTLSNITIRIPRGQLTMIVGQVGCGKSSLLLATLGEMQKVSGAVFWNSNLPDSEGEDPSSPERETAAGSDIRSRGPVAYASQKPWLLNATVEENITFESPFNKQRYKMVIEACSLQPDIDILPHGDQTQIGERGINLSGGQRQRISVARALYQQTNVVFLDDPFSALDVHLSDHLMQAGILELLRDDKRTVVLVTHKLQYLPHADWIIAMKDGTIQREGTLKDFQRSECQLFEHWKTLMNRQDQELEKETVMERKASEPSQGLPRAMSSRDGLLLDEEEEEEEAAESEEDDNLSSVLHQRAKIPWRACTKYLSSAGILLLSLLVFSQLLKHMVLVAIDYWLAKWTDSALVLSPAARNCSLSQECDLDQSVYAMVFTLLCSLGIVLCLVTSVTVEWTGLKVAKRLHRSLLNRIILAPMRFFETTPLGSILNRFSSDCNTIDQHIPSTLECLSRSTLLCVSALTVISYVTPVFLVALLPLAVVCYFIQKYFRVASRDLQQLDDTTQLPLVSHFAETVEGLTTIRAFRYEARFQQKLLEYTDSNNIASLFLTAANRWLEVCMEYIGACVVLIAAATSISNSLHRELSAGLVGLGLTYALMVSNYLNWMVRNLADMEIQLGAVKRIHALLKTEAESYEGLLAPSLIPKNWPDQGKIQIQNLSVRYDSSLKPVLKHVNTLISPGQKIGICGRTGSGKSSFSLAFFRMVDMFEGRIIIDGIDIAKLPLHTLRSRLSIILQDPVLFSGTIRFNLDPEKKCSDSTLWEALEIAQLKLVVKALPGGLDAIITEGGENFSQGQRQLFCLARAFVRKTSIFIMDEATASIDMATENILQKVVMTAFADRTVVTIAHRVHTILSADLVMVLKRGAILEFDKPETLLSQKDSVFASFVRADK

SMILES	Ki [1, 3]	pKi [2]	also measured
O=S(=O)(N=C(NCCF)N1CC(c2ccccc2)C(c2ccc(Cl)cc2)=N1)c1ccc(Cl)cc1 (stereo not shown) [drawing 45, 4-Chloro-N-[[3-(4-chloro-phenyl)-4-phenyl-4,5-dihydro-pyrazol-1-yl]-(2-fluoro-ethylamino)-methylene]-benzenesulfonamide]	25.1 µM	4.6	–
CCCCCNC(=O)c1nc(-c2ccc(Cl)cc2Cl)n(-c2ccc(Br)cc2)c1CC [1-(4-Bromo-phenyl)-2-(2,4-dichloro-phenyl)-5-ethyl-1H-imidazole-4-carboxylic acid pentylamide]	0.794 µM	–	pKi [2, 4]: 5.6
CCCCCOc1c(OC)ccc2cc(C(=O)NCc3ccc4c(c3)OCO4)c(=O)[nH]c12 [JTE-907, 7-Methoxy-2-oxo-8-pentyloxy-1,2-di-hydro-quinoline-3-carboxylic acid (benzo[1,3]dioxol-5-ylmethyl)-amide, reference compound]	0.794 µM	–	–
CN(C)S(=O)(=O)N=C(NCCF)N1CC(c2ccccc2)C(c2ccc(Cl)cc2)=N1 (stereo not shown) [N,N-Dimethylamino-1-sulfonic acid [3-(4-chloro-phenyl)-4-phenyl-4,5-dihydro-pyrazol-1-yl]-(2-fluoro-ethylamino)-methyleneamide]	50.1 µM	4.0	–
CCCCCCC(C)(C)c1ccc([C@@H]2C[C@H](O)CC[C@@H]2CCCO)c(O)c1 (stereo in doubt) [CP55940-entantiomer, 5-(1,1-Dimethyl-heptyl)-2-[5-hydroxy-2-(3-hydroxy-propyl)-cyclohexyl]-phenol, reference compound]	5.01 µM	–	–
CCCCCc1nc(-c2ccc(Cl)cc2Cl)n(-c2ccc(Cl)cc2)c1C [1-(4-Chloro-phenyl)-2-(2,4-dichloro-phenyl)-5-methyl-4-pentyl-1H-imidazole]	1.58 µM	–	pKi [2, 4]: 5.3
C[S+]([O-])c1c(C(=O)NN2CCCCC2)nc(-c2ccc(Cl)cc2Cl)n1-c1ccc(Cl)cc1 (stereo not shown) [1-(4-Chloro-phenyl)-2-(2,4-dichloro-phenyl)-5-methanesulfinyl-1H-imidazole-4-carboxylic acid piperidin-1-ylamide]	100 µM	–	pKi [2, 4]: 4.9
CNC(=NS(=O)(=O)N1CCOCC1)C1=NN(c2ccc(Cl)cc2Cl)C(c2ccccc2)C1 (stereo not shown) [Morpholine-4-sulfonic acid [1-(2,4-dichloro-phenyl)-5-phenyl-4,5-dihydro-1H-pyrazol-3-yl]-methylamino-methyleneamide]	5.01 µM	5.0	–
CCCCCCC(C)(C)c1cc(O)c2c(c1)OC(C)(C)[C@@H]1CC=C(CO)CC21 (stereo partly shown) [HU-210, 3-(1,1-Dimethyl-heptyl)-9-hydroxymethyl-6,6-dimethyl-6a,7,10,10a-tetra hydro-6H-enzo[c]chromen-1-ol, reference compound]	0.794 µM	–	–
CCc1c(C(=O)NN2CCCCC2)nc(-c2ccccc2Cl)n1-c1ccc(Cl)cn1 [2-(2-Chloro-phenyl)-1-(5-chloro-pyridin-2-yl)-5-ethyl-1H-imidazole-4-carboxylic acid piperidin-1-ylamide]	100 µM	4.8	–
O=C(NN1CCCCC1)c1nc(-c2ccc(Cl)cc2Cl)n(-c2ccc(Cl)cc2)c1CN1CCCC1 [1-(4-Chloro-phenyl)-2-(2,4-dichloro-phenyl)-5-pyrrolidin-1-ylmethyl-1H-imidazole-4-carboxylic acid piperidin-1-ylamide]	100 µM	–	pKi [2, 4]: 4.6
CNC(=NS(=O)(=O)c1ccc(C(F)(F)F)cc1)N1CC(c2ccccc2)C(c2ccc(Cl)cc2)=N1 (stereo not shown) [N-{[3-(4-Chloro-phenyl)-4-phenyl-4,5-dihydro-pyrazol-1-yl]-methylamino-methylene}-4-trifluoromethyl-benzene-sulfonamide]	0.501 µM	4.2	–
CN/C(=N\S(=O)(=O)N1CCCCCC1)N1CC(c2ccccc2)C(c2ccc(Cl)cc2)=N1 (stereo not shown) [Azepane-1-sulfonic acid [3-(4-chloro-phenyl)-4-phenyl-4,5-dihydro-pyrazol-1-yl]-methylamino-methyleneamide]	25.1 µM	4.9	–
CCSc1c(C(=O)NN2CCCCC2)nc(-c2ccc(Cl)cc2Cl)n1-c1ccc(Cl)cc1 [1-(4-Chloro-phenyl)-2-(2,4-dichloro-phenyl)-5-ethylsulfanyl-1H-imidazole-4-carboxylic acid piperidin-1-ylamide]	7.94 µM	5.3	–
CS(=O)(=O)c1c(C(=O)NN2CCCCC2)nc(-c2ccc(Cl)cc2Cl)n1-c1ccc(Cl)cc1 [1-(4-Chloro-phenyl)-2-(2,4-dichloro-phenyl)-5-methanesulfonyl-1H-imidazole-4-carboxylic acid piperidin-1-ylamide]	100 µM	5.0	–
O=S(=O)(N=C(NCCF)N1CC(c2ccccc2)C(c2ccc(Cl)cc2)=N1)c1ccc(Cl)cc1 (stereo not shown) [drawing 46]	–	5.0	Affinity to SUR 1 ([1]; hamster SUR1 in COS cell membranes): 4.6
CCCCCCC(C)(C)c1cc(OC)c(C2C=C(CO)[C@H]3C[C@@H]2C3(C)C)c(OC)c1 (stereo in doubt) [HU308, {4-[4-(1,1-Dimethyl-heptyl)-2,6-dimethoxy-phenyl]-6,6-dimethyl-bicyclo[3.1.1]hept-2-en-2-yl}-methanol, reference compound]	–	–	Ki [1]: 0.398 µM
CCNCCN/C(=N\S(=O)(=O)c1ccc(Cl)cc1)N1CC(c2ccccc2)C(c2ccc(Cl)cc2)=N1 (stereo not shown) [4-Chloro-N-[[3-(4-chloro-phenyl)-4-phenyl-4,5-dihydro-pyrazol-1-yl]-(2-ethylamino-ethylamino)-methylene]-Benzenesulfonamide]	7.94 µM	5.3	–
Cc1c(NC(=O)c2ccccc2)nc(-c2ccc(Cl)cc2Cl)n1-c1ccc(Cl)cc1 [N-[1-(4-Chloro-phenyl)-2-(2,4-dichloro-phenyl)-5-methyl-1H-imidazol-4-yl]-benzamide]	2 µM	–	–
O=C(NN1CCCCC1)C1=NN(c2ccc(Cl)cc2)C(c2ccccc2)C1 (stereo not shown) [1-(4-Chloro-phenyl)-5-phenyl-4,5-dihydro-1H-pyrazole-3-carboxylic acid piperidin-1-ylamide]	100 µM	5.1	–
O=S(=O)(N=C(NCC1CCNCC1)N1CC(c2ccccc2)C(c2ccc(Cl)cc2)=N1)c1ccc(Cl)cc1 (stereo not shown)	0.631 µM	4.9	–
Cc1c(NC(=O)N2CCCCC2)nn(-c2ccc(Cl)cc2Cl)c1-c1ccc(Cl)cc1 [Piperidine-1-carboxylic acid [5-(4-chloro-phenyl)-1-(2,4-dichloro-phenyl)-4-methyl-1H-pyrazol-3-yl]-amide]	20 µM	4.7	–
CS(=O)(=O)C(=C1CN(C(c2ccc(Cl)cc2)c2ccc(Cl)cc2)C1)c1cc(F)cc(F)c1 [1-[Bis-(4-chloro-phenyl)-methyl]-3-[(3,5-difluoro-phenyl)-methanesulfonyl-methylene]-azetidine, reference compound]	5.01 µM	5.1	–
CNC(=NS(=O)(=O)N1CCCCC1)N1C[C@H](c2ccccc2)C(c2ccc(Cl)cc2)=N1 [Piperidine-1-sulfonic acid [3-(4-chloro-phenyl)-4-phenyl-4,5-dihydro-pyrazol-1-yl]-methylamino-methyleneamide]	1.58 µM	–	–
O=S(=O)(N=C(NCC1CC1)N1CC(c2ccccc2)C(c2ccc(Cl)cc2)=N1)N1CCOCC1 (stereo not shown)	1 µM	5.7	–
CCC1CN=C(N2CC(c3ccccc3)C(c3ccc(Cl)cc3)=N2)O1 (stereo not shown) [2-[3-(4-Chloro-phenyl)-4-phenyl-4,5-dihydro-pyrazol-1-yl]-5-ethyl-4,5-dihydro-oxazole]	3.16 µM	4.4	–
CN1CCCC1CN/C(=N\S(=O)(=O)c1ccc(Cl)cc1)N1CC(c2ccccc2)C(c2ccc(Cl)cc2)=N1 (stereo not shown) [4-Chloro-N-{[3-(4-chloro-phenyl)-4-phenyl-4,5-dihydro-pyrazol-1-yl]-[(1-methyl-pyrrolidin-2-ylmethyl)-amino]-methylene}-benzenesulfonamide]	–	5.1	–
Cc1ccc(Cn2nc(C(=O)N[C@@H]3C(C)(C)[C@@H]4CC[C@@]3(C)C4)cc2-c2ccc(Cl)c(C)c2)cc1 [SR 144528, reference compound]	0.126 µM	–	–
CN/C(=N\S(=O)(=O)c1ccc(Cl)cc1)N1C[C@@H](c2ccccc2)C(c2ccc(Cl)cc2)=N1 [4-Chloro-N-{[3-(4-chloro-phenyl)-4-phenyl-4,5-dihydro-pyrazol-1-yl]-methylamino-methylene}-benzenesulfonamide]	1 µM	–	–
